Target: human PDE2A1 (Homo sapiens (Human), UniProt O00408)
Test: PDE selectivity IMAP FP assay, human PDE2A1
Format: biochemical
Conditions: Human PDE2; Lab B; read-out: Human PDE2 Ki (nM) Lab B
Outline: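 IMAP fluorescence polarization assay; PDE2 substrate 50 nM FAM-cAMP containing 1000 nM cGMP, enzyme diluted for 20% substrate conversion, in 10 mM Tris HCl pH 7.2, 10 mM MgCl2, 1 mM DTT. Reaction 60 min at room temperature, stopped with IMAP binding solution; polarization read after 1 h. Ki reported.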

human PDE2A1, sequence (O00408 other isoform, or with tags, fused parts or gaps): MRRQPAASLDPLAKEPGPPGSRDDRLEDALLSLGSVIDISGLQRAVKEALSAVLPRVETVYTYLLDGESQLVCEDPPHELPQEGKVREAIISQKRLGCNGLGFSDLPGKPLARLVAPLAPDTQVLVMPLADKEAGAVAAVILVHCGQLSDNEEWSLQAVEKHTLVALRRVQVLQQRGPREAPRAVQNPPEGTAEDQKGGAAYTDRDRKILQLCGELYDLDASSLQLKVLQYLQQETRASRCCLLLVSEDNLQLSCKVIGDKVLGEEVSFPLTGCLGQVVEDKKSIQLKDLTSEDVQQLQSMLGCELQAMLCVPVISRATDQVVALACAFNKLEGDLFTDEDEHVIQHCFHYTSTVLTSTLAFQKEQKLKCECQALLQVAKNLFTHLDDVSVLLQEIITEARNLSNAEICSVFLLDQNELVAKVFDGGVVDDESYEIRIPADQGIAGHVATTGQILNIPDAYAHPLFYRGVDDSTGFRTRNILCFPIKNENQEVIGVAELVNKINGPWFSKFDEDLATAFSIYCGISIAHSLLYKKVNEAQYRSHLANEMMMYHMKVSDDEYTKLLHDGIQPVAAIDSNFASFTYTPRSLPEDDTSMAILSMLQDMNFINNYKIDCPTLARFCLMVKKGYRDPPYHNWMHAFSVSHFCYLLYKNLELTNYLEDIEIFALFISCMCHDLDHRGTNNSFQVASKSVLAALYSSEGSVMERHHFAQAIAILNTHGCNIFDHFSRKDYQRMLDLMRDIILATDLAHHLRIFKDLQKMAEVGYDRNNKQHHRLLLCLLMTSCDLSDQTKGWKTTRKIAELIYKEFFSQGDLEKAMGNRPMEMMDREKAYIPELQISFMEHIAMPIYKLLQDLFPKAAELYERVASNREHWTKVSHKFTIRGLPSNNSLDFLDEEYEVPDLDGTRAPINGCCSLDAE

Row | Compound | Ki
1 | C[C@@H](c1ccc(C(F)(F)F)cc1)n1nc(CO)c2c(=O)[nH]c(N3CC(F)(F)C3)nc21 [Example 159, 6-(3,3-Difluoroazetidin-1-yl)-3-(hydroxymethyl)-1-{(1S)-1-[4-(trifluoromethyl)phenyl]ethyl}-1,5-dihydro-4H-pyrazolo[3,4-d]pyrimidin-4-one] | 2.3 nM
2 | CC1CN(c2nc3c(c(CO)nn3[C@@H](C)c3ccc(C(F)(F)F)cc3)c(=O)[nH]2)C1 [Example 160, 3-(Hydroxymethyl)-6-(3-methylazetidin-1-yl)-1-{(1S)-1-[4-(trifluoromethyl)phenyl]ethyl}-1,5-dihydro-4H-pyrazolo[3,4-d]pyrimidin-4-one] | 1.6 nM
3 | C[C@@H](c1ccc(C(F)(F)F)cc1)n1nc(C(F)F)c2c(=O)[nH]c(N(C)C)nc21 [Example 289, (S)-3-(Difluoromethyl)-6-(dimethylamino)-1-(1-(4-(trifluoromethyl)phenyl)ethyl)-1H-pyrazolo[3,4-d]pyrimidin-4(5H)-one] | 0.25 nM
4 | CSc1nc2c(c(CO)nn2[C@@H](C)c2ccc(C(F)(F)F)cc2)c(=O)[nH]1 [Example 301, (S)-3-(Hydroxymethyl)-6-(methylthio)-1-(1-(4-(trifluoromethyl)phenyl)ethyl)-1H-pyrazolo[3,4-d]pyrimidin-4(5H)-one] | 1.8 nM
5 | C[C@@H](c1ccc(C(F)(F)F)cc1)n1nc(C(F)(F)F)c2c(=O)[nH]c(N(C)C)nc21 [Example 339, (S)-6-(Dimethylamino)-3-(trifluoromethyl)-1-(1-(4-(trifluoromethyl)phenyl)ethyl)-1H-pyrazolo[3,4-d]pyrimidin-4(5H)-one] | 2.1 nM
6 | O=c1[nH]c(O)nc2c1c(C(F)(F)F)nn2C1(c2ccc(C(F)(F)F)cc2)CC1 [Example 354, 6-Hydroxy-3-(trifluoromethyl)-1-(1-(4-(trifluoromethyl)phenyl)cyclopropyl)-1H-pyrazolo[3,4-d]pyrimidin-4(5H)-one] | 2.4 nM
7 | C=CC(c1ccc(C(F)(F)F)cc1)n1nc(C(F)(F)F)c2c(=O)[nH]c(O)nc21 (stereo not shown) [Example 355, 6-Hydroxy-3-(trifluoromethyl)-1-(1-(4-(trifluoromethyl)phenyl)allyl)-1H-pyrazolo[3,4-d]pyrimidin-4(5H)-one] | 284 nM
8 | C[C@@H](c1ccc(C(F)(F)F)cc1)n1nc(C(F)F)c2c(=O)[nH]c(N3CCC3)nc21 [compound 290, 6-Azetidin-1-yl-3-(difluoromethyl)-1-{(1S)-1-[4-(trifluoromethyl)phenyl]ethyl}-1,5-dihydro-4H-pyrazolo[3,4-d]pyrimidin-4-one] | 0.26 nM
9 | CCOc1nc2c(c(CO)nn2[C@@H](C)c2ccc(C(F)(F)F)cc2)c(=O)[nH]1 [compound 302, 6-Ethoxy-3-(hydroxymethyl)-1-{(1S)-1-[4-(trifluoromethyl)phenyl]ethyl}-1,5-dihydro-4H-pyrazolo[3,4-d]pyrimidin-4-one] | 3.7 nM

Target: Rhesus PDE2A3 (Macaca mulatta, UniProt B3VTJ2)
Test: PDE2 fluorescence polarization (IMAP FP) assay, rhesus PDE2A3
Format: biochemical, rhesus macaque
Conditions: Lab A, read-out: Rhesus PDE2 Ki (nM) Lab A
Method: A Labcyte Echo 555 (Labcyte, Sunnyvale, Calif.) is used to dispense 200 nL from each well of the titration plate to the 384 well assay plate. Ten microliters of a solution of enzyme (1/2000 final dilution from aliquots; sufficient to produce 20% substrate conversion) was added to the assay plate. Next 10 uL of a separate solution of the substrate FAM-labeled cAMP (50 nM final concentration product # R7506 from Molecular Devices) and the activator cGMP (1 uM final concentration), prepared in the assay buffer (10 mM Tris HCl, pH 7.2, 10 mM MgCl2, 0.05% NaN3 0.01% Tween-20, and 1 mM DTT) was added to the assay plate and shaken to mix. The reaction is allowed to proceed at room temperature for 60 minutes. A binding solution is then made from the kit components, comprised of 80% Solution A, 20% Solution B and binding reagent at a volume of 1/600 the total binding solution. The enzymatic reaction is stopped by addition of 60 μL of the binding solution to each well of the assay plates and the plates are sealed and shaken for 30 seconds. The plate was incubated at room temperature for at least one hour prior to determining the fluorescence polarization (FP). The parallel and perpendicular fluorescence of each well of the plate was measured using a Tecan Genios Pro plate reader (Tecan, Switzerland) or Perkin Elmer EnVision™ plate reader (Waltham, Mass.). Fluorescence polarization (mP) was calculated from the parallel (S) and perpendicular (P) fluorescence of each sample well and the analogous values for the median control well, containing only substrate (So and Po), using the following equation: Polarization (mP)=1000*(S/So−P/Po)/(S/So+P/Po).
Dose-inhibition profiles for each compound were characterized by fitting the mP data to a four-parameter equation given below.
An apparent (KM) for FAM-labeled cAMP of ˜10 uM was used.

Rhesus PDE2A3, sequence (B3VTJ2 1-941): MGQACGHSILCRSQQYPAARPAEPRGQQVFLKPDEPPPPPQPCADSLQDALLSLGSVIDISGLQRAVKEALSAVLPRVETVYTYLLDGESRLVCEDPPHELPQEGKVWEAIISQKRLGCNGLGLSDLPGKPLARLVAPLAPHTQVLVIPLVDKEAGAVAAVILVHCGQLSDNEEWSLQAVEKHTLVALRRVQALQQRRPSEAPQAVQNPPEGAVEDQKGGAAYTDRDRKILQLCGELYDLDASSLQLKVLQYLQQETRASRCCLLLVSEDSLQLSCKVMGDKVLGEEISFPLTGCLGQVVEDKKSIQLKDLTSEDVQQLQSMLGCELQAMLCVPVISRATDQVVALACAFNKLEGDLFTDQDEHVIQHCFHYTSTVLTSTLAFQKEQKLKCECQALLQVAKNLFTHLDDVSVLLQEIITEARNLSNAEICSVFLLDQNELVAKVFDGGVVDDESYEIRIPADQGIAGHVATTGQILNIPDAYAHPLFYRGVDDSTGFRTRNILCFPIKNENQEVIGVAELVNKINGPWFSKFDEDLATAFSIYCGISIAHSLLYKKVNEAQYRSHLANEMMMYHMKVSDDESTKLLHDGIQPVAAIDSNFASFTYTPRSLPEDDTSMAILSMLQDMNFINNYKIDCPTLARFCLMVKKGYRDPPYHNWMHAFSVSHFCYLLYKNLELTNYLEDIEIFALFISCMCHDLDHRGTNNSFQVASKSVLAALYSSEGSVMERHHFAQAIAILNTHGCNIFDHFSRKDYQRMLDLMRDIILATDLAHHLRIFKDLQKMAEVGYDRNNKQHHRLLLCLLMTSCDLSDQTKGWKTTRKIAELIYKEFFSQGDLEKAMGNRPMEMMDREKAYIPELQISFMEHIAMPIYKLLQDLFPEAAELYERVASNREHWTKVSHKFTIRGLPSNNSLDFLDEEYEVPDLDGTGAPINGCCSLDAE

Row | Compound | Ki
10 | CC(c1ccc(OC(F)(F)F)c(F)c1)n1nc(CO)c2c(=O)[nH]c(O)nc21 (single isomer, unassigned) [Example 10] | 145 nM
11 | CC(c1ccc(OC(F)(F)F)c(F)c1)n1nc(CO)c2c(=O)[nH]c(O)nc21 (single isomer, unassigned) [Example 11] | 14 nM
12 | CC(c1ccc(C(F)(F)F)cc1)n1nc(CO)c2c(=O)[nH]c(O)nc21 (single isomer, unassigned) [Example 18, (R)- or (S)-6-Hydroxy-3-(hydroxymethyl)-1-{1-[4-(trinuoromethyl)phenyl]ethyl}-1,5-dihydro-4H-pyrazolo[3,4-d]pyrimidin-4-one] | > 1000 nM
13 | CC(c1ccc(S(F)(F)(F)(F)F)cc1)n1nc(CO)c2c(=O)[nH]c(O)nc21 (single isomer, unassigned) [Example 20, (R)- or (S)-6-Hydroxy-3-(hydroxymethyl)-1-{1-[4-(pentafluorosulfanyl)phenyl]ethyl}-1,5-dihydro-4H-pyrazolo[3,4-d]pyrimidin-4-one] | ~684 nM

Same assay, conditions: Lab B, read-out: Rhesus PDE2 Ki (nM) Lab B

Row | Compound | Ki
14 | C[C@H](c1ccc(C(F)(F)F)c(F)c1)n1nc(CF)c2c(=O)[nH]c(O)nc21 (mixture of isomers) [Example 35, (R)- and (S)-1-(1-(3-Fluoro-4-(trifluoromethyl)phenyl)ethyl)-3-(fluoromethyl)-6-hydroxy-H-pyrazolo[3,4-d]pyrimidin-4(5H)-one] | 209 nM
15 | CC(c1ccc(C(F)(F)F)c(F)c1)n1nc(CO)c2c(=O)[nH]c(O)nc21 (single isomer, unassigned) [Example 2] | 364 nM
16 | CC(c1ccc(OC(F)(F)F)c(F)c1)n1nc(CO)c2c(=O)[nH]c(O)nc21 (single isomer, unassigned) [Example 10] | 249 nM
17 | CC(c1ccc(OC(F)(F)F)c(F)c1)n1nc(CO)c2c(=O)[nH]c(O)nc21 (single isomer, unassigned) [Example 11] | 34 nM
18 | CC(C)C(c1ccc(C(F)(F)F)cc1)n1nc(CO)c2c(=O)[nH]c(O)nc21 (single isomer, unassigned) [Example 12] | 192 nM
19 | O=c1[nH]c(O)nc2c1c(CO)nn2C(c1ccc(C(F)(F)F)cc1)C1CC1 (single isomer, unassigned) [Example 14] | 410 nM
20 | O=c1[nH]c(O)nc2c1c(CO)nn2C(c1ccc(C(F)(F)F)cc1)C1CC1 (single isomer, unassigned) [Example 15, (S) or (R)-1-(Cyclopropyl(4-(trifluoromethyl)phenyl)methyl)-6-hydroxy-3-(hydroxymethyl)-1H-pyrazolo[3,4-d]pyrimidin-4(5H)-one] | 17 nM
21 | O=c1[nH]c(O)nc2c1c(CO)nn2C(CC(F)(F)F)c1ccc(C(F)(F)F)cc1 (single isomer, unassigned) [Example 22] | 253 nM
22 | O=c1[nH]c(O)nc2c1c(CO)nn2C(CC(F)(F)F)c1ccc(C(F)(F)F)cc1 (single isomer, unassigned) [Example 23] | ~2700 nM
23 | CC(C)(C)C(c1ccc(C(F)(F)F)c(F)c1)n1nc(CO)c2c(=O)[nH]c(O)nc21 (single isomer, unassigned) [Example 24] | ~2270 nM
24 | CC(C)(C)C(c1ccc(C(F)(F)F)c(F)c1)n1nc(CO)c2c(=O)[nH]c(O)nc21 (single isomer, unassigned) [Example 25] | 238 nM
25 | CC(C)C(c1ccc(C(F)(F)F)c(F)c1)n1nc(CO)c2c(=O)[nH]c(O)nc21 (single isomer, unassigned) [Example 28, (S)- or (R)-1-(1-(3-F1uoro-4-(trifluoromethyl)phenyl)-2-methylpropyl)-6-hydroxy-3-(hydroxymethyl)-1H-pyrazolo[3,4-d]pyrimidin-4(5H)-one] | 117 nM
26 | CC(C)(C)C(c1ccc(C(F)(F)F)cc1)n1nc(CO)c2c(=O)[nH]c(O)nc21 (single isomer, unassigned) [Example 29, (R)- or (S)-1-(2,2-Dimethyl-1-(4-(trifluoromethyl)phenyl)propyl)-6-hydroxy-3-(hydroxymethyl)-1H-pyrazolo[3,4-d]pyrimidin-4(5H)-one] | 220 nM
27 | CC(C)(C)C(c1ccc(C(F)(F)F)cc1)n1nc(CO)c2c(=O)[nH]c(O)nc21 (single isomer, unassigned) [Example 30, (S)- or (R)-1-(2,2-Dimethyl-1-(4-(trifluoromethyl)phenyl)propyl)-6-hydroxy-3-(hydroxymethyl)-1H-pyrazolo[3,4-d]pyrimidin-4(5H)-one] | 2040 nM
28 | CC(C)(C)C(c1ccc(C(F)(F)F)cc1)n1nc(CF)c2c(=O)[nH]c(O)nc21 (single isomer, unassigned) [Example 51] | 123 nM
29 | CC(C)(C)C(c1ccc(C(F)(F)F)cc1)n1nc(CF)c2c(=O)[nH]c(O)nc21 (single isomer, unassigned) [Example 52] | 910 nM
30 | CCC(c1ccc(CC(F)(F)F)c(F)c1)n1nc(CO)c2c(=O)[nH]c(N(C)C)nc21 (single isomer, unassigned) [Example 96, (R)- or (S)-6-(Dimethylamino)-1-(1-(3-fluoro-4-(2,2,2-trifluoroethyl)phenyl)propyl)-3-(hydroxymethyl)-1H-pyrazolo[3,4-d]pyrimidin-4(5H)-one] | 0.5 nM
31 | CCC(c1ccc(C(F)F)c(F)c1)n1nc(CO)c2c(=O)[nH]c(N(C)C)nc21 (single isomer, unassigned) [Example 147] | 0.54 nM
32 | CC(C)C(c1ccc(C(F)(F)F)c(F)c1)n1nc(CF)c2c(=O)[nH]c(N(C)C)nc21 (single isomer, unassigned) [Example 220, (R)- or (S)-6-(Dimethylamino)-1-(1-(3-fluoro-4-(trifluoromethyl)phenyl)-2-methylpropyl)-3-(fluoromethyl)-1H-pyrazolo[3,4-d]pyrimidin-4(5H)-one] | 0.5 nM
33 | O=c1[nH]c(O)nc2c1c(CC(F)(F)F)nn2C(c1ccc(C(F)(F)F)cc1)C1CC1 (single isomer, unassigned) [Example 227] | 12 nM
34 | O=c1[nH]c(O)nc2c1c(CC(F)(F)F)nn2C(c1ccc(C(F)(F)F)cc1)C1CC1 (single isomer, unassigned) [Example 228] | 210 nM

— patent US10174037B2, “Dihydropyrazolopyrimidinone compounds as PDE2 inhibitors” (Merck Sharp & Dohme Corp., priority 2015, dated 2019)
